Assay results reported in US20250092065A1, “2-(INDAZOL-5-YL)-6-(PIPERIDIN-4-YL)-1,7-NAPHTHYRIDINE DERIVATIVES AND RELATED COMPOUNDS AS MODULATORS FOR SPLICING NUCLEIC ACIDS AND FOR THE TREATMENT OF PROLIFERATIVE DISEASES” (REMIX THERAPEUTICS INC., priority 2022, published 2025).
Counter-ions that a name gives are not always drawn.

Legend:
Target C = assay: RT-qPCR canonical junction panel assay, Target C mRNA; format: cell-based; details: Table 4, read-out: Target C IC50 (decrease in CJ mRNA levels)
In short: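 IC50 is the concentration giving 50% CJ decrease, from a 4-parameter logistic fit of percent response; response derived from ΔΔCt against housekeeper and DMSO over a fixed ΔCt window, with canonical exon-junction qPCR in compound-treated K562 or A673 cells.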

SMN2 mRNA = assay: RT-qPCR splicing assay, SMN2 mRNA; format: cell-based, human; details: Homo sapiens, canonical junction qPCR panel, Table 4; read-out: SMN2 IC50 (decrease in CJ mRNA levels)
In short: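 Both isoforms, CJ and AJ, read by qPCR from crude lysates of treated A673 or K562 cells; 24 h, 37 °C, maximum 10 uM. Normalization: housekeeper ΔCt, then DMSO ΔΔCt.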

| Compound | IC50 (Target C) | IC50 (SMN2 mRNA) |
| --- | --- | --- |
| CNC(=O)c1nc(-c2cc3cn(C)nc3cc2O)nc2ccc(N3CCC(N(C)C)CC3)cc12 [Compound 742, 6-[4-(dimethylamino)piperidin-1-yl]-2-(6-hydroxy-2-methylindazol-5-yl)-N-methylquinazoline-4-carboxamide] | > 10000 nM | < 100 nM |
| CN[C@@H]1CCN(c2cc3c(Cl)cc(-c4cc5cn(C)nc5c(C)c4O)nc3cc2C)C1 [Compound 748, 5-{4-chloro-7-methyl-6-[(3R)-3-(methylamino)pyrrolidin-1-yl]quinolin-2-yl}-2,7-dimethylindazol-6-ol] | > 10000 nM | 100 to 1000 nM |
| C[C@@H]1CN(c2ccc3nc(-c4cc5cn(C)nc5cc4O)ncc3c2)C[C@H](C)N1 [Compound 751, 5-{6-[(3R,5S)-3,5-dimethylpiperazin-1-yl]quinazolin-2-yl}-2-methylindazol-6-ol hydrochloride] | > 10000 nM | < 100 nM |
| C[C@H]1CN(c2ccc3nc(-c4cc5cn(C)nc5cc4O)ncc3c2)C[C@H](C)N1 [Compound 752, 5-{6-[(3S,5S)-3,5-dimethylpiperazin-1-yl]quinazolin-2-yl}-2-methylindazol-6-ol] | > 10000 nM | < 100 nM |
| C[C@@H]1CN(c2ccc3nc(-c4cc5cn(C)nc5cc4O)ncc3c2)C[C@@H](C)N1 [Compound 753, 5-{6-[(3R,5R)-3,5-dimethylpiperazin-1-yl]quinazolin-2-yl}-2-methylindazol-6-ol] | > 10000 nM | < 100 nM |

Continued, values first:

| IC50 (Target C) | IC50 (SMN2 mRNA) | Compound |
| --- | --- | --- |
| 1000 to 10000 nM | < 100 nM | C[C@@H]1CN(c2ccc3nc(-c4cc5cn(C)nc5c(F)c4O)nc(C(=O)NCCO)c3c2)C[C@H](C)N1 [Compound 737, 6-[(3R,5S)-3,5-dimethylpiperazin-1-yl]-2-(7-fluoro-6-hydroxy-2-methylindazol-5-yl)-N-(2-hydroxyethyl)quinazoline-4-carboxamide] |
| 1000 to 10000 nM | 1000 to 10000 nM | C[C@@H]1CN(c2ccc3nc(-c4cc5cn(C)nc5c(F)c4O)ncc3c2)C[C@H](C)N1 [Compound 743, 5-{6-[(3R,5S)-3,5-dimethylpiperazin-1-yl]quinazolin-2-yl}-7-fluoro-2-methylindazol-6-ol] |
| 1000 to 10000 nM | < 100 nM | C[C@H]1CN(c2ccc3nc(-c4cc5cn(C)nc5c(F)c4O)ncc3c2)C[C@H](C)N1 [Compound 744, 5-{6-[(3S,5S)-3,5-dimethylpiperazin-1-yl]quinazolin-2-yl}-7-fluoro-2-methylindazol-6-ol] |
| 1000 to 10000 nM | < 100 nM | C[C@@H]1CN(c2ccc3nc(-c4cc5cn(C)nc5c(F)c4O)ncc3c2)C[C@@H](C)N1 [Compound 745, 5-{6-[(3R,5R)-3,5-dimethylpiperazin-1-yl]quinazolin-2-yl}-7-fluoro-2-methylindazol-6-ol] |
| 1000 to 10000 nM | < 100 nM | CN[C@H]1CCN(c2cc3c(Cl)cc(-c4cc5cn(C)nc5c(C)c4O)nc3cc2C)C1 [Compound 749, 5-{4-chloro-7-methyl-6-[(3S)-3-(methylamino)pyrrolidin-1-yl]quinolin-2-yl}-2,7-dimethylindazol-6-ol] |
| 100 to 1000 nM | < 100 nM | Cn1cc2cc(-c3ncc4cc(N5CCC(N6CCC6)CC5)ccc4n3)c(O)c(F)c2n1 [Compound 750, 5-{6-[4-(azetidin-1-yl)piperidin-1-yl]quinazolin-2-yl}-7-fluoro-2-methylindazol-6-ol] |
| 100 to 1000 nM | < 100 nM | CCN(CC)C1CCN(c2ccc3nc(-c4cc5cn(C)nc5c(F)c4O)ncc3c2)CC1 [Compound 756, 5-{6-[4-(diethylamino)piperidin-1-yl]quinazolin-2-yl}-7-fluoro-2-methylindazol-6-ol] |
